The text below walks through data of patent US20040009904A1, “APL immunoreactive peptides, conjugates thereof and methods of treatment for aPL antibody-mediated pathologies” (priority 1995, published 2004).

Bridge positions count the residues as written; N and C are the ends. Square brackets hold non-standard residues; d marks the D form. Peptide text beside a SMILES is read from it. NMeL = CN[C@@H](CC(C)C)C(=O)O; Phg = N[C@H](C(=O)O)c1ccccc1; Sar = CNCC(=O)O

For this test, the target named is ACA-6501. The experiment in a line: Competitive binding peptide ACA ELISA, cardiolipin/β2-GPI-coated plates. Details: species or system human. As to conditions: Optimization of Peptide 3G3; inf = no 50% inhibition. On the procedure: A variation of this assay uses microtitration plates coated with human β2-glycoprotein I/cardiolipin (β2-GPI/CL) instead of tetravalent peptide and tests the ability of monomeric peptides to block the binding of aPL antibody to the epitope(s) on β2-GPI/CL. In this assay, IgG-depleted human serum at an optimized concentration is used as a source of β2-GPI. The monomeric peptides at several concentrations are incubated with an optimized concentration of aPL antibody in a manner analogous to the assay which employs tetravalent peptide as a plate substrate. Following the incubation of aPL/peptide in (β2-GPI/CL) plates, antibody binding and the peptide concentration required for 50% inhibition is determined at half-maximal absorbance as in the tetravalent assay.
Peptide sequences for all five peptides immediately follow the table. All were tested using the competitive binding peptide ACA ELISA using CL/β2-GPI plates as described herein.
(B) Immulon I® 96-well, flat-bottom, polystyrene microtitration plates (Dynatech Laboratories, Inc., Chantilly, Va.) were coated with 30 μL/well of cardiolipin (CL, 50 μg; Sigma Chemical Co., St. Louis, Mo.) in ethanol. Two control wells received 30 μL ethanol only. After overnight evaporation at 4° C., each well was blocked with 200 μL of 5% (w/v) fish gelatin in PBS for 2 hours at RT.
During this incubation, variable amounts of each of six peptides were mixed with 22 μL ACA-6501 serum diluted with 3% fish gelatin in 1:1 TBS/PBS (final dilution of 1:400) in a final volume of 220 μL using Eppendorf microcentrifuge tubes. Specifically, in tube #1 were mixed 181.3 μL of 3% fish gelatin in TBS-PBS, 16.7 μL of peptide stock solution plus 22 μL of ACA-6501 serum diluted 40 times in 3% fish gelatin/TBS-PBS. Stock solutions ranged from 450-800 μg/mL for peptides #951 (diserine non-cyclized negative control), #952 (a lot of LJP 690), and thioethers CCTE-3G3, CHTE-3G3, HCTE-3G3 and HHTE-3G3. To tube #2 the following were added: 148 μL fish gelatin/TBS-PBS, […] of peptide stock solution, plus 22 μL of 40 times diluted ACA-6501 serum. Tube #3 contained 48 μL fish gelatin/TBS-PBS, […] of peptide stock solution, plus 22 μL of 40 times diluted ACA-6501 serum. The control tube #4 received 396 μL fish gelatin/TBS-PBS and 44 μL of 40 times diluted ACA-6501 serum (no peptide). Each of the tubes incubated for approximately 1 hour at RT.
The CL/β2-GPI microtitration plate was washed 5 times with TBS and 100 μL aliquots in duplicate from Eppendorf tubes #1, 2, 3, and 4 containing the antibody-peptide (or no peptide mixtures) were added to the wells. A volume of 100 μL from tube #4 was added to the duplicate control wells containing no cardiolipin. The microtitration plate was incubated for 1 hour at RT with agitation at 40 rpm in an orbital shaker (American Scientific, Rotator V), washed 5 times with TBS and then 100 μL of 1:1000 goat anti-human IgG alkaline phosphatase conjugate (Zymed, Cat No. 62-8422) in 0.5% (w/v) BSA-TBS was added. Following incubation for 1 hour at RT, the microtitration plate was again washed 5 times with TBS and the colorimetric enzyme detection developed by adding 100 μL of PMPP solution (7.8 g phenolphthalein monophosphate plus 69.5 g of 2-amino-2-methyl-1-propanol in 100 mL water stock solution diluted 1:26 with water). After 21 minutes, the reaction was stopped by adding 50 μL of 0.2 M Na2HPO4 (Mallinckrodt) to each well. Absorbance at 550 nm was read in a microplate reader (Bio-Tek Instruments, Model EL 311). The amount of peptide that inhibited ACA-6501 binding by 50%, the IC50, was calculated from the graph at the intersection of half-maximal absorbance with amount of peptide added.
Background: An ELISA detects its analyte on a solid surface through an enzyme-linked reagent.
As to `CC(C)C[C@@H]1NC(=O)[C@H](C(C)C)NC(=O)CNC(=O)[C@H](CC(C)C)NC(=O)[C@@H](N)CSSC[C@@H](C(=O)O)NC(=O)CNC(=O)[C@H](CCCCN)NC(=O)CNC1=O` [C L G V L G K G C] (H-CLGVLGKGC-OH; disulfide 1-9), the “with ACA 6501 150 ug/mL” value was determined as 500 µg/mL.

In the case of `CC(C)C[C@@H]1NC(=O)[C@H](CCCCN)NC(=O)CNC(=O)[C@H](CC(C)C)NC(=O)[C@H](C(C)C)NC(=O)CNC(=O)[C@H](C)NC(=O)[C@@H](N)CSSC[C@@H](C(=O)O)NC1=O` [C A G V L G K L C] (H-CAGVLGKLC-OH; disulfide 1-9), the “with ACA 6501 150 ug/mL” value was determined as 200 µg/mL.

Regarding `CC[C@H](C)[C@@H]1NC(=O)[C@@H](N)CSSC[C@@H](C(=O)O)NC(=O)[C@H](CC(C)C)NC(=O)[C@H](CCCCN)NC(=O)CNC(=O)[C@H](CC(C)C)NC(=O)[C@H](C(C)C)NC(=O)CNC1=O` [C I G V L G K L C] (H-CIGVLGKLC-OH; disulfide 1-9), the “with ACA 6501 150 ug/mL” value is 60 µg/mL.

On to `CC(C)C[C@@H]1NC(=O)[C@H](CCCCN)NC(=O)CNC(=O)[C@H](CC(C)C)NC(=O)[C@H](C(C)C)NC(=O)CNC(=O)[C@@H](CC(C)C)NC(=O)[C@@H](N)CSSC[C@@H](C(=O)O)NC1=O` [CdL G V L G K L C] (H-C[dL]GVLGKLC-OH; disulfide 1-9), for which the “with ACA 6501 150 ug/mL” value worked out at 180 µg/mL.

For `CC(C)C[C@@H]1NC(=O)[C@H](C(C)C)NC(=O)CNC(=O)[C@H](CC(C)C)NC(=O)[C@@H](N)CSSC[C@@H](C(=O)O)NC(=O)[C@H](CC(C)C)N(C)C(=O)[C@H](CCCCN)NC(=O)CNC1=O` [C L G V L G K nL C] (H-CLGVLGK[NMeL]C-OH; disulfide 1-9), the “with ACA 6501 150 ug/mL” value amounted to 240 µg/mL.

Regarding `CC(C)C[C@@H]1NC(=O)[C@H](C(C)C)NC(=O)CNC(=O)[C@H](CC(C)C)NC(=O)[C@@H](N)CSSC[C@@H](C(=O)O)NC(=O)[C@@H](CC(C)C)NC(=O)[C@@H](CCCCN)NC(=O)CNC1=O` [C L G V L G dK dL C] (H-CLGVLG[dK][dL]C-OH; disulfide 1-9), the “with ACA 6501 150 ug/mL” value is 150 µg/mL.

With `CC(C)C[C@@H]1NC(=O)[C@H](CCCCN)NC(=O)CNC(=O)[C@H](CC(C)C)NC(=O)[C@H](c2ccccc2)NC(=O)CNC(=O)[C@H](CC(C)C)NC(=O)[C@@H](N)CSSC[C@@H](C(=O)O)NC1=O` [C L G pG L G K L C] (H-CLG[Phg]LGKLC-OH; disulfide 1-9), the “with ACA 6501 150 ug/mL” value came out at 70 µg/mL.

As to `CC(C)C[C@@H]1NC(=O)[C@H](C(C)C)NC(=O)CNC(=O)[C@H](CC(C)C)NC(=O)[C@@H](N)CSSC[C@@H](C(=O)O)NC(=O)[C@@H](CC(C)C)NC(=O)[C@H](CCCCN)NC(=O)CNC1=O` [C L G V L G K dL C] (H-CLGVLGK[dL]C-OH; disulfide 1-9), the “with ACA 6501 150 ug/mL” value amounted to 140 µg/mL.

Consider `CC(C)C[C@@H]1NC(=O)[C@H](CCCCN)NC(=O)CNC(=O)[C@H](CC(C)C)NC(=O)[C@H](C(C)C)NC(=O)CN(C)C(=O)[C@H](CC(C)C)NC(=O)[C@@H](N)CSSC[C@@H](C(=O)O)NC1=O` [C L nG V L G K L C] (H-CL[Sar]VLGKLC-OH; disulfide 1-9), for which the “with ACA 6501 150 ug/mL” value is 70 µg/mL.

For the compound `CC(C)C[C@@H]1NC(=O)[C@H](CCCCN)NC(=O)CN(C)C(=O)[C@H](CC(C)C)NC(=O)[C@H](C(C)C)NC(=O)CNC(=O)[C@H](CC(C)C)NC(=O)[C@@H](N)CSSC[C@@H](C(=O)O)NC1=O` [C L G V L nG K L C] (H-CLGVL[Sar]KLC-OH; disulfide 1-9), the “with ACA 6501 150 ug/mL” value was determined as 550 µg/mL.

Consider `CC(C)C[C@@H]1NC(=O)[C@H](C(C)C)NC(=O)CNC(=O)[C@H](CC(C)C)NC(=O)[C@@H](N)CSSC[C@@H](C(=O)O)NC(=O)[C@@H](CC(C)C)NC(=O)[C@@H](CC(C)C)NC(=O)CNC1=O` [C L G V L G dL dL C] (H-CLGVLG[dL][dL]C-OH; disulfide 1-9), for which the “with ACA 6501 150 ug/mL” value is 140 µg/mL.
